Where a name gives a salt, the structure may show the parent alone. Read-outs that look alike come from different tables or passages of the source.
How the values were obtained:
Type in all cases: biochemical
[1] = biological target: T1, recombinant human DAO (diamine oxidase) (Homo sapiens, UniProt P19801); assay: Activity evaluation on recombinant human DAO (Amplex Red/HRP-coupled assay, 1 mM putrescine substrate); settings: read-out: Inhibitory Activity (IC50, nM) DAO
T1 construct: purchased R&D systems
T1 sequence (P19801 20-751): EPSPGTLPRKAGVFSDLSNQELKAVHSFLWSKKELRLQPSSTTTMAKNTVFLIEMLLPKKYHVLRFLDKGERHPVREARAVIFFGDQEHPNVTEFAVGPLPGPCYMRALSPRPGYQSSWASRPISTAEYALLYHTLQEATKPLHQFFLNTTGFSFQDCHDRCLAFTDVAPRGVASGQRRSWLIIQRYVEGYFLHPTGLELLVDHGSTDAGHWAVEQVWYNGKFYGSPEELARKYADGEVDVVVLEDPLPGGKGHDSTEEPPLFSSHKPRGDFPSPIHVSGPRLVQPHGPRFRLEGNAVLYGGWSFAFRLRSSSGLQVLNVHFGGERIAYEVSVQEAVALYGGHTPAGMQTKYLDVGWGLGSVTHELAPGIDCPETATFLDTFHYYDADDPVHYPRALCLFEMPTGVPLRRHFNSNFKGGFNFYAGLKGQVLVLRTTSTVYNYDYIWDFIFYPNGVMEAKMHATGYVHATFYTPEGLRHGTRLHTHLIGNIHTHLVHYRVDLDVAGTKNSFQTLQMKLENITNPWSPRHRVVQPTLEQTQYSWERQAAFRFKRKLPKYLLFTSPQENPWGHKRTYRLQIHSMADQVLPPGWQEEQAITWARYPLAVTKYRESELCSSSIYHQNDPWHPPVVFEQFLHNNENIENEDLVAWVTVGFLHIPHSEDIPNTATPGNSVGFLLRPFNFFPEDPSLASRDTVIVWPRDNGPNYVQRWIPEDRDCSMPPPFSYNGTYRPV
In short: (§1)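 Compounds preincubated 30 min at 37 °C with enzyme in 50 mM sodium phosphate pH 7.4 (final DMSO <1%, 8-point 1:3 dilutions); reaction started with 200 uM Amplex Red, 1 U/mL HRP and substrate (MAO-A 0.5 mM tyramine, MAO-B 1 mM benzylamine, DAO 1 mM putrescine). Resorufin fluorescence (ex 544/em 590 nm) followed over 1-2 h; IC50 from four-parameter logistic fit.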

[2] = biological target: T2, recombinant human VAP-1 (Homo sapiens, UniProt Q16853); assay: Activity evaluation on recombinant human VAP-1 (Amplex Red/HRP-coupled hydrogen peroxide assay, benzylamine substrate); settings: read-out: Inhibitory Activity (IC50, nM) human VAP-1
T2 construct: purchased R&D systems
T2 sequence (Q16853 1-763): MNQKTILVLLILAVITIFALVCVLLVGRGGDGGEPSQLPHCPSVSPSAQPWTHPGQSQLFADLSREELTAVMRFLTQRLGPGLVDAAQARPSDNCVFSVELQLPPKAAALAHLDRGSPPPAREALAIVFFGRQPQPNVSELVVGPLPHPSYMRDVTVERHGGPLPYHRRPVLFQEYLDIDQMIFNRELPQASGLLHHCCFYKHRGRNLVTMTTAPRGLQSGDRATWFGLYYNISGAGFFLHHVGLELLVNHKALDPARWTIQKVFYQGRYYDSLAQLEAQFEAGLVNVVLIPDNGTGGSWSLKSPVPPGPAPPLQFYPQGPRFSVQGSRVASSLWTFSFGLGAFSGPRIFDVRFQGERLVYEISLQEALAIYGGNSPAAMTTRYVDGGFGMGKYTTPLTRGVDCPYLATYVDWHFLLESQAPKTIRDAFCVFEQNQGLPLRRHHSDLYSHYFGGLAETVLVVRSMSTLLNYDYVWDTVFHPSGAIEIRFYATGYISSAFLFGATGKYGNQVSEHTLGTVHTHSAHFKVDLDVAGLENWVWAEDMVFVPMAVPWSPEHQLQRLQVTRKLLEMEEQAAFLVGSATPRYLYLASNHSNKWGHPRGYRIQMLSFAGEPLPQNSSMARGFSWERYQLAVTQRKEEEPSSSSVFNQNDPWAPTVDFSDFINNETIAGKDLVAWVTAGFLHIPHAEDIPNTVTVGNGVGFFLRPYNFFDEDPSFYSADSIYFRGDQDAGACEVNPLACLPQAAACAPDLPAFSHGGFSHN
In short: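 Recombinant human VAP-1 in 50 mM sodium phosphate pH 7.4 preincubated 30 min at 37 °C with compound (8-point 1:3 series, <1% DMSO), then 1 mM benzylamine, 200 uM Amplex Red, 1 U/mL HRP added. H2O2-derived resorufin fluorescence (ex 544/em 590) followed 1–2 h; IC50 from four-parameter fit of rate inhibition.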

[3] = biological target: T3, recombinant human MAO-A (monoamine oxidase-A) (Homo sapiens, UniProt P21397); assay: Activity evaluation on recombinant human MAO-A (Amplex Red/HRP-coupled assay, 0.5 mM tyramine substrate); settings: read-out: Inhibitory Activity (IC50, nM) MAO-A
T3 construct: purchased Sigma-Aldrich
T3 sequence (P21397 1-527): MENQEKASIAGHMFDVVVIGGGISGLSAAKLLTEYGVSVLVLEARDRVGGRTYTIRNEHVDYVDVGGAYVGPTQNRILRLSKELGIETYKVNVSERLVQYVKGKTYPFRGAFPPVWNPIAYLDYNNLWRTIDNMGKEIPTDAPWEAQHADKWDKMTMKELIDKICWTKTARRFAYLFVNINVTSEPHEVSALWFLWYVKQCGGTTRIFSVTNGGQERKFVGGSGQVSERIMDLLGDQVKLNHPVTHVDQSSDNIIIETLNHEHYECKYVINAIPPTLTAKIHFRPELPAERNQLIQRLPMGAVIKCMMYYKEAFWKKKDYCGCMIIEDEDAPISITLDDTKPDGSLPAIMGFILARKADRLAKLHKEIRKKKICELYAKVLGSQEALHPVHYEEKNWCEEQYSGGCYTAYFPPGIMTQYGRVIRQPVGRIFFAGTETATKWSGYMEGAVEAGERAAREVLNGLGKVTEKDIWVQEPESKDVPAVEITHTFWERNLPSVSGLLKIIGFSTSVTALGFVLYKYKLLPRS
In short: as §1

[4] = biological target: T4, recombinant human MAO-B (monoamine oxidase-B) (Homo sapiens, UniProt P27338); assay: Activity evaluation on recombinant human MAO-B (Amplex Red/HRP-coupled assay, 1 mM benzylamine substrate); settings: read-out: Inhibitory Activity (IC50, nM) MAO-B
T4 construct: purchased Sigma-Aldrich
T4 sequence (P27338 1-520): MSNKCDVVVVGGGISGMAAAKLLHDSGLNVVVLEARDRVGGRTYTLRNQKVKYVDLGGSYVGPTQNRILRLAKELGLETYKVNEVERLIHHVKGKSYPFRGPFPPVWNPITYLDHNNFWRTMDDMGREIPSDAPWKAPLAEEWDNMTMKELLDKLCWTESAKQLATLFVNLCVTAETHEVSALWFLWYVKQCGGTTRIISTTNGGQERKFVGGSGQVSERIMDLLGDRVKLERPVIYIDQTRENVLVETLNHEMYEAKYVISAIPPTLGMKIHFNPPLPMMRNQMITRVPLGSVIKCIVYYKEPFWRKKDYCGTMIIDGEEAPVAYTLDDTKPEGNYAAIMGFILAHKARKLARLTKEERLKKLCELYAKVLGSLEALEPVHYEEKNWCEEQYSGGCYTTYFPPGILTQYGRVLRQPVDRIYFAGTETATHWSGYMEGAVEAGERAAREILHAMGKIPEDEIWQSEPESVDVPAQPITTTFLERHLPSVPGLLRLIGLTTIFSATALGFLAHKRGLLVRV
In short: as §1

[5] = recombinant human VAP-1, benzylamine substrate
[6] = recombinant human VAP-1, 30 min preincubation at 37° C., 1 mM benzylamine

SMILES	IC50 ([1]; 1 mM putrescine substrate) [nM]	IC50 [2, 5] [nM]	IC50 ([3]; 0.5 mM tyramine substrate) [nM]	IC50 ([4]; 1 mM benzylamine substrate) [nM]	IC50 ([1]; 1 mM putrescine) [nM]	IC50 [2, 6] [nM]	IC50 ([3]; 0.5 mM tyramine) [nM]	IC50 ([4]; 1 mM benzylamine) [nM]
CN1Cc2cc(-c3ccc(Cn4cnn(CC(CN)=C(F)F)c4=O)s3)ccc2NC1=O [Example 182, 6-[5-[[1-[2-(aminomethyl)-3,3-difluoro-allyl]-5-oxo-1,2,4-triazol-4-yl]methyl]-2-thienyl]-3-methyl-1,4-dihydroquinazolin-2-one Trifluoroacetate]	> 100000	0.2	> 100000	> 100000	–	–	–	–
CS(=O)(=O)c1cccc(-c2ccc(Cn3cnn(CC(CN)=C(F)F)c3=O)s2)c1 [Example 102, 2-[2-(aminomethyl)-3,3-difluoro-allyl]-4-[[5-(3-methylsulfonylphenyl)-2-thienyl]methyl]-1,2,4-triazol-3-one Trifluoroacetate]	–	–	–	–	> 10000	0.4	> 100000	5400
Cc1cc(-c2ccc3c(c2)CN(C)C(=O)N3)cnc1-n1cnn(CC(CN)=C(F)F)c1=O [Example 250, 6-[6-[1-[2-(aminomethyl)-3,3-difluoro-allyl]-5-oxo-1,2,4-triazol-4-yl]-5-methyl-3-pyridyl]-3-methyl-1,4-dihydroquinazolin-2-one Trifluoroacetate]	4300	0.2	> 100000	> 100000	–	–	–	–
CS(=O)(=O)c1ccc(-c2ccc3cc(Cn4cnn(CC(CN)=C(F)F)c4=O)sc3c2)cc1 [Example 197, 2-[2-(aminomethyl)-3,3-difluoro-allyl]-4-[[6-(4-methylsulfonylphenyl)benzothiophen-2-yl]methyl]-1,2,4-triazol-3-one trifluoroacetate]	2400	0.8	> 100000	18000	–	–	–	–
Cc1cc(-c2ccc(Cn3cnn(CC(CN)=C(F)F)c3=O)s2)cc2ccc(=O)[nH]c12 [Example 135, 6-[5-[[1-[2-(aminomethyl)-3,3-difluoro-allyl]-5-oxo-1,2,4-triazol-4-yl]methyl]-2-thienyl]-8-methyl-1H-quinolin-2-one Trifluoroacetate]	–	–	–	–	79000	0.4	> 100000	> 100000
Cc1cc(-c2ccc3ocnc3c2)cnc1-n1cnn(CC(CN)=C(F)F)c1=O [Example 229, 2-[2-(aminomethyl)-3,3-difluoro-allyl]-4-[5-(1,3-benzoxazol-5-yl)-3-methyl-2-pyridyl]-1,2,4-triazol-3-one Trifluoroacetate]	97000	0.6	> 10000	4100	–	–	–	–
NCC(Cn1ncn(Cc2cc(Br)cs2)c1=O)=C(F)F [Example 98, 2-[2-(aminomethyl)-3,3-difluoro-allyl]-4-[(4-bromo-2-thienyl)methyl]-1,2,4-triazol-3-one Trifluoroacetate]	–	–	–	–	18600	23	> 100000	13900
CCn1cc(-c2ccc(-n3cnn(CC(CN)=C(F)F)c3=O)cn2)cn1 [Example 45, 2-[2-(aminomethyl)-3,3-difluoro-allyl]-4-[6-(1-ethylpyrazol-4-yl)-3-pyridyl]-1,2,4-triazol-3-one Trifluoroacetate]	–	–	–	–	200	0.2	> 100000	410
NCC(Cn1ncn(Cc2sc(-c3ccc4c(c3)OCO4)cc2F)c1=O)=C(F)F [Example 300, 2-[2-(aminomethyl)-3,3-difluoro-allyl]-4-[[5-(1,3-benzodioxol-5-yl)-3-fluoro-2-thienyl]methyl]-1,2,4-triazol-3-one Trifluoroacetate]	25300	1.7	> 100000	11100	–	–	–	–
CS(=O)(=O)c1ccc(-c2ccccc2Cn2cnn(CC(CN)=C(F)F)c2=O)cc1 [Example 279, 2-[2-(aminomethyl)-3,3-difluoro-allyl]-4-[[2-(4-methylsulfonylphenyl)phenyl]methyl]-1,2,4-triazol-3-one Trifluoroacetate]	> 100000	> 100	> 100000	> 100000	–	–	–	–
NCC(Cn1ncn(-c2ccc(F)c(F)c2)c1=O)=C(F)F [Example 3, 2-[2-(aminomethyl)-3,3-difluoro-allyl]-4-(3,4-difluorophenyl)-1,2,4-triazol-3-one Trifluoroacetate]	–	–	–	–	19000	4	> 100000	25000
CS(=O)(=O)n1cc(-c2ccc(Cn3cnn(CC(CN)=C(F)F)c3=O)s2)cn1 [Example 293, 2-[2-(aminomethyl)-3,3-difluoro-allyl]-4-[[5-(1-methylsulfonylpyrazol-4-yl)-2-thienyl]methyl]-1,2,4-triazol-3-one Trifluoroacetate]	25300	2.4	> 100000	> 100000	–	–	–	–
NCC(Cn1ncn(-c2ncc(Br)cc2F)c1=O)=C(F)F [Example 14, 2-[2-(aminomethyl)-3,3-difluoro-allyl]-4-(5-bromo-3-fluoro-2-pyridyl)-1,2,4-triazol-3-one Trifluoroacetate]	–	–	–	–	4100	1.4	> 100000	40000

Source: patent US11168073B2, “3,3-difluoroallylamines or salts thereof and pharmaceutical compositions comprising the same” (YUHAN CORPORATION, priority 2018, dated 2021)
